Test results reported in paper PMC11420776 (RSC Advances, 2024).

What was measured:
HCT-15 (colon cancer) = experiment: NCI 60-cell one-dose antiproliferative screen; format: cell-based, human; conditions: one dose 10 μM
KM12 (colon cancer) = experiment: NCI 60-cell one-dose antiproliferative screen; format: cell-based, human; conditions: one dose 10 μM
[1] = test system: NCI-H460 (NSC lung cancer); experiment: NCI 60-cell one-dose antiproliferative screen; format: cell-based, human; conditions: one dose 10 μM
SW-620 (colon cancer) = experiment: NCI 60-cell one-dose antiproliferative screen; format: cell-based, human; conditions: one dose 10 μM
OVCAR-3 (ovarian cancer) = experiment: NCI 60-cell one-dose antiproliferative screen; format: cell-based, human; conditions: one dose 10 μM
DU-145 (prostate cancer) = experiment: NCI 60-cell one-dose antiproliferative screen; format: cell-based, human; conditions: one dose 10 μM
SK-MEL-2 (melanoma) = experiment: NCI 60-cell one-dose antiproliferative screen; format: cell-based, human; conditions: one dose 10 μM
SF-295 (CNS cancer) = experiment: NCI 60-cell one-dose antiproliferative screen; format: cell-based, human; conditions: one dose 10 μM
SK-OV-3 (ovarian cancer) = experiment: NCI 60-cell one-dose antiproliferative screen; format: cell-based, human; conditions: one dose 10 μM
MDA-MB-435 (melanoma) = experiment: NCI 60-cell one-dose antiproliferative screen; format: cell-based, human; conditions: one dose 10 μM
RPMI-8226 (leukemia) = experiment: NCI 60-cell one-dose antiproliferative screen; format: cell-based, human; conditions: one dose 10 μM
HOP-92 (NSC lung cancer) = experiment: NCI 60-cell one-dose antiproliferative screen; format: cell-based, human; conditions: one dose 10 μM
[2] = test system: NCI-H522 (NSC lung cancer); experiment: NCI 60-cell one-dose antiproliferative screen; format: cell-based, human; conditions: one dose 10 μM
UO-31 (renal cancer) = experiment: NCI 60-cell one-dose antiproliferative screen; format: cell-based, human; conditions: one dose 10 μM
OVCAR-8 (ovarian cancer) = experiment: NCI 60-cell one-dose antiproliferative screen; format: cell-based, human; conditions: one dose 10 μM
HT29 (colon cancer) = experiment: NCI 60-cell one-dose antiproliferative screen; format: cell-based, human; conditions: one dose 10 μM
UACC-62 (melanoma) = experiment: NCI 60-cell one-dose antiproliferative screen; format: cell-based, human; conditions: one dose 10 μM
PC-3 (prostate cancer) = experiment: NCI 60-cell one-dose antiproliferative screen; format: cell-based, human; conditions: one dose 10 μM
OVCAR-5 (ovarian cancer) = experiment: NCI 60-cell one-dose antiproliferative screen; format: cell-based, human; conditions: one dose 10 μM
MCF7 (breast cancer) = experiment: NCI 60-cell one-dose antiproliferative screen; format: cell-based, human; conditions: one dose 10 μM
SF-268 (CNS cancer) = experiment: NCI 60-cell one-dose antiproliferative screen; format: cell-based, human; conditions: one dose 10 μM
CAKI-1 (renal cancer) = experiment: NCI 60-cell one-dose antiproliferative screen; format: cell-based, human; conditions: one dose 10 μM
[3] = test system: MDA-MB-468 (breast cancer); experiment: NCI 60-cell one-dose antiproliferative screen; format: cell-based, human; conditions: one dose 10 μM
MALME-3M (melanoma) = experiment: NCI 60-cell one-dose antiproliferative screen; format: cell-based, human; conditions: one dose 10 μM
HCT-116 (colon cancer) = experiment: NCI 60-cell one-dose antiproliferative screen; format: cell-based, human; conditions: one dose 10 μM
786-0 (renal cancer) = experiment: NCI 60-cell one-dose antiproliferative screen; format: cell-based, human; conditions: one dose 10 μM
SK-MEL-28 (melanoma) = experiment: NCI 60-cell one-dose antiproliferative screen; format: cell-based, human; conditions: one dose 10 μM
CCRF-CEM (leukemia) = experiment: NCI 60-cell one-dose antiproliferative screen; format: cell-based, human; conditions: one dose 10 μM
TK-10 (renal cancer) = experiment: NCI 60-cell one-dose antiproliferative screen; format: cell-based, human; conditions: one dose 10 μM
[4] = test system: NCI-H23 (NSC lung cancer); experiment: NCI 60-cell one-dose antiproliferative screen; format: cell-based, human; conditions: one dose 10 μM
[5] = test system: 60 human tumor cell lines; experiment: NCI 60-cell one-dose antiproliferative screen, whole panel; format: cell-based; conditions: Homo sapiens, 60 cell, read-out: Mean inhibition (mean GI%)
A498 (renal cancer) = experiment: NCI 60-cell one-dose antiproliferative screen; format: cell-based, human; conditions: one dose 10 μM
[6] = test system: NCI/ADR-RES (ovarian cancer); experiment: NCI 60-cell one-dose antiproliferative screen; format: cell-based, human; conditions: one dose 10 μM
[7] = test system: MDA-MB-231/ATCC (breast cancer); experiment: NCI 60-cell one-dose antiproliferative screen; format: cell-based, human; conditions: one dose 10 μM
RXF 393 (renal cancer) = experiment: NCI 60-cell one-dose antiproliferative screen; format: cell-based, human; conditions: one dose 10 μM
HOP-62 (NSC lung cancer) = experiment: NCI 60-cell one-dose antiproliferative screen; format: cell-based, human; conditions: one dose 10 μM
ACHN (renal cancer) = experiment: NCI 60-cell one-dose antiproliferative screen; format: cell-based, human; conditions: one dose 10 μM
HCC-2998 (colon cancer) = experiment: NCI 60-cell one-dose antiproliferative screen; format: cell-based, human; conditions: one dose 10 μM
LOX IMIV (melanoma) = experiment: NCI 60-cell one-dose antiproliferative screen; format: cell-based, human; conditions: one dose 10 μM
M14 (melanoma) = experiment: NCI 60-cell one-dose antiproliferative screen; format: cell-based, human; conditions: one dose 10 μM
[8] = test system: A549/ATCC (NSC lung cancer); experiment: NCI 60-cell one-dose antiproliferative screen; format: cell-based, human; conditions: one dose 10 μM
OVCAR-4 (ovarian cancer) = experiment: NCI 60-cell one-dose antiproliferative screen; format: cell-based, human; conditions: one dose 10 μM
U251 (CNS cancer) = experiment: NCI 60-cell one-dose antiproliferative screen; format: cell-based, human; conditions: one dose 10 μM
[9] = test system: NCI-H322M (NSC lung cancer); experiment: NCI 60-cell one-dose antiproliferative screen; format: cell-based, human; conditions: one dose 10 μM
[10] = test system: NCI-H226 (NSC lung cancer); experiment: NCI 60-cell one-dose antiproliferative screen; format: cell-based, human; conditions: one dose 10 μM
IGROV1 (ovarian cancer) = experiment: NCI 60-cell one-dose antiproliferative screen; format: cell-based, human; conditions: one dose 10 μM
SF-539 (CNS cancer) = experiment: NCI 60-cell one-dose antiproliferative screen; format: cell-based, human; conditions: one dose 10 μM
HS 578T (breast cancer) = experiment: NCI 60-cell one-dose antiproliferative screen; format: cell-based, human; conditions: one dose 10 μM
SNB-75 (CNS cancer) = experiment: NCI 60-cell one-dose antiproliferative screen; format: cell-based, human; conditions: one dose 10 μM
EKVX (NSC lung cancer) = experiment: NCI 60-cell one-dose antiproliferative screen; format: cell-based, human; conditions: one dose 10 μM
SN12C (renal cancer) = experiment: NCI 60-cell one-dose antiproliferative screen; format: cell-based, human; conditions: one dose 10 μM
T-47D (breast cancer) = experiment: NCI 60-cell one-dose antiproliferative screen; format: cell-based, human; conditions: one dose 10 μM
SNB-19 (CNS cancer) = experiment: NCI 60-cell one-dose antiproliferative screen; format: cell-based, human; conditions: one dose 10 μM
UACC-257 (melanoma) = experiment: NCI 60-cell one-dose antiproliferative screen; format: cell-based, human; conditions: one dose 10 μM
COLO-205 (colon cancer) = experiment: NCI 60-cell one-dose antiproliferative screen; format: cell-based, human; conditions: one dose 10 μM

## O=[N+]([O-])c1ccc(C=NNc2ccc3nnc(-c4ccccc4)n3n2)cc1 [Compound 4b, 6-(2-(4-Nitrobenzylidene)hydrazinyl)-3-phenyl-[1,2,4]triazolo[4,3-b]pyridazine]
HCT-15 (colon cancer)
  GI%: — (— GI% is below 15%)
KM12 (colon cancer)
  GI%: — (— GI% is below 15%)
[1]
  GI%: — (— GI% is below 15%)
SW-620 (colon cancer)
  GI%: — (— GI% is below 15%)
OVCAR-3 (ovarian cancer)
  GI%: — (— GI% is below 15%)
DU-145 (prostate cancer)
  GI%: — (— GI% is below 15%)
SK-MEL-2 (melanoma)
  GI%: — (— GI% is below 15%)
SF-295 (CNS cancer)
  GI%: — (— GI% is below 15%)
SK-OV-3 (ovarian cancer)
  GI%: — (— GI% is below 15%)
MDA-MB-435 (melanoma)
  GI%: — (— GI% is below 15%)
RPMI-8226 (leukemia)
  GI%: — (— GI% is below 15%)
HOP-92 (NSC lung cancer)
  GI%: — (— GI% is below 15%)
[2]
  GI%: — (— GI% is below 15%)
UO-31 (renal cancer)
  GI%: — (— GI% is below 15%)
OVCAR-8 (ovarian cancer)
  GI%: — (— GI% is below 15%)
HT29 (colon cancer)
  GI%: — (— GI% is below 15%)
UACC-62 (melanoma)
  GI%: — (— GI% is below 15%)
PC-3 (prostate cancer)
  GI%: — (— GI% is below 15%)
OVCAR-5 (ovarian cancer)
  GI%: — (— GI% is below 15%)
MCF7 (breast cancer)
  GI%: — (— GI% is below 15%)
SF-268 (CNS cancer)
  GI%: — (— GI% is below 15%)
CAKI-1 (renal cancer)
  GI%: — (— GI% is below 15%)
[3]
  GI%: — (— GI% is below 15%)
MALME-3M (melanoma)
  GI%: — (— GI% is below 15%)
HCT-116 (colon cancer)
  GI%: — (— GI% is below 15%)
786-0 (renal cancer)
  GI%: — (— GI% is below 15%)
SK-MEL-28 (melanoma)
  GI%: — (— GI% is below 15%)
CCRF-CEM (leukemia)
  GI%: — (— GI% is below 15%)
TK-10 (renal cancer)
  GI%: — (— GI% is below 15%)
[4]
  GI%: — (— GI% is below 15%)
[5]
  inhibition at 10 µM: < 0%
A498 (renal cancer)
  GI%: — (— GI% is below 15%)
[6]
  GI%: — (— GI% is below 15%)
[7]
  GI%: — (— GI% is below 15%)
RXF 393 (renal cancer)
  GI%: — (— GI% is below 15%)
HOP-62 (NSC lung cancer)
  GI%: — (— GI% is below 15%)
ACHN (renal cancer)
  GI%: — (— GI% is below 15%)
HCC-2998 (colon cancer)
  GI%: — (— GI% is below 15%)
LOX IMIV (melanoma)
  GI%: — (— GI% is below 15%)
M14 (melanoma)
  GI%: — (— GI% is below 15%)
[8]
  GI%: — (— GI% is below 15%)
OVCAR-4 (ovarian cancer)
  GI%: — (— GI% is below 15%)
U251 (CNS cancer)
  GI%: — (— GI% is below 15%)
[9]
  GI%: — (— GI% is below 15%)
[10]
  GI%: — (— GI% is below 15%)
IGROV1 (ovarian cancer)
  GI%: — (— GI% is below 15%)
SF-539 (CNS cancer)
  GI%: — (— GI% is below 15%)
HS 578T (breast cancer)
  GI%: — (— GI% is below 15%)
SNB-75 (CNS cancer)
  GI%: — (— GI% is below 15%)
EKVX (NSC lung cancer)
  GI%: — (— GI% is below 15%)
SN12C (renal cancer)
  GI%: — (— GI% is below 15%)
T-47D (breast cancer)
  GI%: — (— GI% is below 15%)
SNB-19 (CNS cancer)
  GI%: — (— GI% is below 15%)
UACC-257 (melanoma)
  GI%: — (— GI% is below 15%)
COLO-205 (colon cancer)
  GI%: — (— GI% is below 15%)
